Where a SMILES comes first, the peptide text is derived from it. Bridges are numbered along the chain shown (N, C = ends).

T2 sequence (Q15116 whole entry): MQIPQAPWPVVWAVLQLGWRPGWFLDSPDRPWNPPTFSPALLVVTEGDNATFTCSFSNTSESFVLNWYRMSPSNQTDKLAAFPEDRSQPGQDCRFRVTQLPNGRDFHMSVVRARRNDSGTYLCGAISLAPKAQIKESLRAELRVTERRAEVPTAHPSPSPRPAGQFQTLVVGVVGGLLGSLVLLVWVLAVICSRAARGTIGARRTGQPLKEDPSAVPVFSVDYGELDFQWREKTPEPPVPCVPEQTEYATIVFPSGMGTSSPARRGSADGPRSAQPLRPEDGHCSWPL
T2 sequence (Q9NZQ7 whole entry): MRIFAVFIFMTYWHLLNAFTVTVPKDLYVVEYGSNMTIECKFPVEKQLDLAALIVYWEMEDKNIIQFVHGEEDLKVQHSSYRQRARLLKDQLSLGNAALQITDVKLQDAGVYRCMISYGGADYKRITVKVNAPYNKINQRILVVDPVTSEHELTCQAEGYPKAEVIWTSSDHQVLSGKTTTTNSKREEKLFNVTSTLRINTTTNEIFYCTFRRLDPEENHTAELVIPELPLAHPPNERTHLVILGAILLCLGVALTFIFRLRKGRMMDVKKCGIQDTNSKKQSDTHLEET
T1 sequence (Q9NZQ7 whole entry): as above
Chain of Programmed cell death 1 ligand 1 (Mus musculus) (Q9EP73 whole entry): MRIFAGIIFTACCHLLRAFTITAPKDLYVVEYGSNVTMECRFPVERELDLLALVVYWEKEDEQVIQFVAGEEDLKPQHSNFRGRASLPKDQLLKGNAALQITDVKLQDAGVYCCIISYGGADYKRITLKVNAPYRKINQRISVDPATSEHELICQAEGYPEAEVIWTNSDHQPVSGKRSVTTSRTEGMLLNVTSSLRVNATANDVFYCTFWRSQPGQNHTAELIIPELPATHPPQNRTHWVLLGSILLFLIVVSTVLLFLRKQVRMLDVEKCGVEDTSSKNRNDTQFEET

The first assay concerns the target T1, Programmed cell death 1 ligand 1 (Homo sapiens, UniProt Q9NZQ7). Put plainly: Binding affinity to Fc-labeled human PDL1 expressed in Escherichia coli by SPR spectroscopy. (Surface plasmon resonance follows binding to a sensor surface in real time, without labels.)
The Kd is the equilibrium constant for the complex coming apart. High values mean weaker binding, low ones tighter binding. With H-MRNRERYPKPYY-OH, the dissociation constant (Kd) is 22000 nM.
In the case of `C[C@@H](O)[C@H](NC(=O)[C@@H]1CCCN1C(=O)[C@H](CCCCN)NC(=O)[C@H](CO)NC(=O)[C@H](Cc1ccc(O)cc1)NC(=O)[C@@H](N)CC(N)=O)C(=O)N[C@@H](CC(=O)O)C(=O)N[C@@H](CCCNC(=N)N)C(=O)N[C@@H](CCC(N)=O)C(=O)N[C@@H](Cc1ccc(O)cc1)C(=O)N[C@@H](Cc1cnc[nH]1)C(=O)N[C@@H](Cc1ccccc1)C(=O)O`, binding was characterised by a dissociation constant (Kd) of 510 nM.
H-KHAHHTHNLRLP-OH: binding was put at a Kd of 1130 nM.

The next assay addresses T2, Programmed cell death protein 1/Programmed cell death 1 ligand 1 (Homo sapiens, UniProt Q15116+Q9NZQ7). Description: Inhibition of PD1/PDL1 (unknown origin) at 500 uM after 15 mins by HTRF assay relative to control. In kind it is protein-complex assay. (In TR-FRET formats the signal depends on donor and acceptor labels being close together.)
The term inhibition denotes the share of the control response that was lost under treatment. Turning to `CN(C)CCOc1ccc([N+](=O)[O-])c(OC(=O)N(C)C)c1`, the inhibition was 43%.

In the next assay the target is T2, Programmed cell death protein 1/Programmed cell death 1 ligand 1. Put plainly: Inhibition of PD1/PDL1 (unknown origin) interaction by HTRF assay. In kind it is protein-complex assay.
What is called IC50 is the concentration that gives 50% inhibition. Consider `Cc1c(/C=C/c2ncc(CNC(CO)C(=O)O)cc2C(F)(F)F)cccc1-c1ccc2c(c1)OCCO2` (configuration not stated), for which the IC50 was 36 nM.

A further assay has as its target T3, V-type immunoglobulin domain-containing suppressor of T-cell activation (Homo sapiens) (UniProt Q9H7M9).
T3 sequence (whole entry): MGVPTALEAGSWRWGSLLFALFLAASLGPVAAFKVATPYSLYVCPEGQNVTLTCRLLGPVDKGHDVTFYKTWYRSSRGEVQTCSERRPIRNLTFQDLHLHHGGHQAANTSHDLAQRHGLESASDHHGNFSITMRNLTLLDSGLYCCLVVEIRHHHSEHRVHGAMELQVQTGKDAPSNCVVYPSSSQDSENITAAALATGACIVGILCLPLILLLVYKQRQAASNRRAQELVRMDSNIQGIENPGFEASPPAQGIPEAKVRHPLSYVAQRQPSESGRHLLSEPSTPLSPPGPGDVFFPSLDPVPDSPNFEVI
Put plainly: Inhibition of VISTA signaling in human PBMC assessed as IFNgamma release at 100 nM after 30 mins by ELISA. On the technique in general: ELISA stands for enzyme-linked immunosorbent assay.
Regarding `C[C@@H](O)[C@H](NC(=O)N[C@@H](CC(N)=O)c1nc([C@@H](N)Cc2ccccc2)no1)C(=O)O`, the inhibition was found to be 99%.
As for `C[C@@H](O)[C@@H](NC(=O)N[C@@H](CC(N)=O)c1nc([C@@H](N)CO)no1)C(=O)O`, the inhibition was more than 70%.

The target in the next assay is T2, Programmed cell death protein 1/Programmed cell death 1 ligand 1. Description: Inhibition of PD1/PDL1 interaction in human jurkat cells co-expressing TCR promoter assessed as TCR activation by luciferase reporter gene assay. The assay is classed as cell-based.
Usually EC50 stands for the concentration needed to bring the measured effect to its halfway point. For `CC[C@H](C)[C@@H]1NC(=O)[C@H](CC(C)C)NC(=O)[C@H](Cc2ccccc2)NC(=O)CSC[C@@H](C(=O)NCC(N)=O)NC(=O)[C@H](CCCNC(=N)N)NC(=O)[C@H](Cc2ccccc2)NC(=O)[C@H](C(C)C)NC(=O)[C@H](CCCNC(=N)N)NC(=O)[C@H](CC(=O)O)NC(=O)[C@H](CCCNC(=N)N)NC(=O)[C@H]([C@@H](C)CC)NC(=O)[C@H](C(C)C)NC1=O` ({CH2CO}-FLIVIRDRVFRCG-NH2; thioether N-12), the EC50 was 6300 nM.

The target in another assay is T1, Programmed cell death 1 ligand 1. Description: Binding affinity to biotinylated PDL1 (unknown origin) expressed in Escherichia coli OmpX membrane after 45 mins by SAPE-fluorescence based flow cytometry. The assay is classed as cell membranes.
As for `C[C@H](NC(=O)[C@H](Cc1ccc(O)cc1)NC(=O)[C@H](CCC(N)=O)NC(=O)CNC(=O)[C@@H](N)CO)C(=O)N[C@@H](CO)C(=O)N[C@@H](Cc1ccc(O)cc1)C(=O)N[C@@H](Cc1cnc[nH]1)C(=O)N[C@@H](CS)C(=O)N[C@@H](Cc1c[nH]c2ccccc12)C(=O)N[C@@H](CS)C(=O)N[C@@H](Cc1c[nH]c2ccccc12)C(=O)N[C@@H](CCCNC(=N)N)C(=O)N[C@@H](CC(=O)O)C(=O)N1CCC[C@H]1C(=O)NCC(=O)N[C@@H](CCCNC(=N)N)C(=O)N[C@@H](CO)C(=O)NCC(=O)NCC(=O)N[C@@H](CO)C(=O)N[C@@H](CCCCN)C(=O)O` (H-SGQYASYHCWCWRDPGRSGGSK-OH), the affinity, expressed as Kd, was 94 nM.

In another assay the target is T2, Programmed cell death protein 1/Programmed cell death 1 ligand 1. Put plainly: Inhibition of PD1/PDL1 (unknown origin) interaction at 10 uM after 15 mins by HTRF assay relative to control. The assay is classed as protein-complex assay.
In the case of `COc1ccc(Nc2cc(C(=O)Nc3ccc(Oc4ccccc4)cc3)ccn2)cc1`, the inhibition is 36%.

The target is the same in a further assay. Description: Inhibition of recombinant human PD1 (25 to 167 residues)/human PDL1 (19 to 238 residues) interaction after 40 mins by HTRF assay. The assay is classed as protein-complex assay.
Take `N#Cc1c(-c2ccc3c(c2)OCCO3)cccc1N1CCC(NC2CCCOC2)CC1` (configuration not stated): the 50% inhibitory concentration (IC50) is not above 100 nM.
Still for that read-out and setting: as for `Cc1c(-c2ccccc2)cccc1-n1cc2c(n1)CNCC2`, the figure is not above 100 nM; as for `N#Cc1c(NC(=O)c2nc3c(s2)CNCC3)cccc1-c1ccc2c(c1)OCC2`, not above 100 nM.
Consider `N#Cc1c(Nc2nccc3cc(CNCCO)cnc23)cccc1C1=CCCCC1`, for which the half-maximal inhibitory concentration (IC50) is not above 100 nM.
Take `Cc1cc(C(=O)Nc2cccc(-c3ccccc3)c2C)ncc1CNCCO`: the IC50 is not above 100 nM.
With `Cc1c(-c2ccccc2)cccc1-c1cc2ccc(CNCCO)cn2n1`, the half-maximal inhibitory concentration (IC50) is not above 100 nM.
As for `COc1cc2oc(-c3cccc(-c4ccccc4)c3C)nc2cc1CNCCO`, the IC50 is not above 100 nM.

Another assay concerns the target Programmed cell death 1 ligand 1 (Mus musculus) (UniProt Q9EP73). Description: Inhibition of PDL1 in C57BL6 mouse splenocytes assessed as protection against ant-CD3/CD28-stimulated cell proliferation at 100 nM after 4 hrs by CFSE-based FACS analysis relative to control.
For `NCCCC[C@H](NC(=O)N[C@@H](CC(N)=O)C(=O)NNC(=O)[C@@H](N)CO)C(=O)O`, the inhibition came to 87%.
Take `C[C@@H](O)C(NC(=O)[C@H](CCC(=O)O)NC(=O)[C@@H](N)CO)C(=O)N[C@H](CO)C(=O)N[C@H](CCCCN)C(=O)N[C@H](CO)CN[C@H](Cc1ccccc1)C(N)=O` (single isomer, unassigned): the inhibition was 81%.
As to `C[C@@H](O)[C@H](N)c1nnc([C@H](CCC(N)=O)NC(=O)N[C@@H](CO)C(=O)O)o1`, the inhibition stood at 92%.
Turning to `C[C@@H](O)[C@@H](NC(=O)N[C@@H](CC(N)=O)c1nc([C@@H](N)CO)no1)C(=O)O`, the inhibition turned out to be 97%.
Turning to `NC(=O)C[C@H](NC(=O)[C@@H]1C[C@H](O)CN1)c1nc(N2CCCC2)no1`, the inhibition turned out to be 91%.
Take `C[C@@H](O)[C@@H]1NC(=O)COCCOCCNC(=O)[C@@H](CO)NC(=O)N[C@H](C(N)=O)C(=O)NNC1=O`: the inhibition was 94%.
In the case of `COCCNC(=O)CC[C@H](NS(=O)(=O)C1CC1)c1nnc(-c2ccccc2OC)o1`, the inhibition was found to be 97%.
Turning to `C[C@@H](O)[C@H](N)c1noc([C@H](Cc2ccc(O)cc2)NC(=O)N2CCC[C@H]2C(=O)O)n1`, the inhibition came out at 99%.
With `C[C@@H](O)[C@@H]1C(=O)N[C@H](CO)C(=O)N[C@H](C(=O)N[C@@H](CO)C(=O)N[C@@H](Cc2ccccc2)C(N)=O)CCCCNC(=O)CC[C@H](NC(=O)[C@@H](N)CO)C(=O)N1C`, the inhibition amounted to 82%.
Regarding `C[C@@H](O)[C@@H]1NC(=O)N[C@@H](C(N)=O)C(=O)NNC(=O)[C@@H](CO)NC(=O)COCCOCCNC1=O`, the inhibition was 95%.

The values are drawn from ChEMBL document CHEMBL4330055, “Development of Inhibitors of the Programmed Cell Death-1/Programmed Cell Death-Ligand 1 Signaling Pathway” (J Med Chem, 2019).
